The NIST ThermoML archive (doi:10.1007/s10765-008-0491-0)

Test: xn = mol fraction of the nth substance listed
Conditions: 101 kPa, Liquid; for speed of sound: Sing-around technique in a fixed-path interferometer; for mass density: Vibrating tube method; for viscosity: Capillary tube (Ostwald / Ubbelohde) method

CCCCCCCCCCCCCCCC [hexadecane] + CCCCCCCCO
Conditions	mass density, 293.15 K [kg/m3]	mass density, 303.15 K [kg/m3]	mass density, 308.15 K [kg/m3]	speed of sound, 293.15 K [m/s]	speed of sound, 303.15 K [m/s]	speed of sound, 308.15 K [m/s]	viscosity, 298.15 K [mPa·s]	viscosity, 303.15 K [mPa·s]	viscosity, 308.15 K [mPa·s]
x2 = 0	770.456	766.981	763.52	1338.6	1320	1301.7	3.041	2.706	2.409
x2 = 0.0461	771.581	768.09	764.586	1337	1318.4	1299.9	3.073	2.748	2.402
x2 = 0.1039	773.103	769.605	766.078	1335.7	1317.1	1298.7	3.089	2.741	2.399
x2 = 0.1547	774.574	771.039	767.495	1334.7	1316.1	1297.7	3.096	2.728	2.406
x2 = 0.1944	775.766	772.218	768.68	1334.3	1315.8	1297.4	3.107	2.728	2.419
x2 = 0.2685	778.197	774.63	771.077	1333.7	1315.3	1296.9	3.175	2.773	2.473
x2 = 0.3383	780.693	777.145	773.575	1333.5	1315.1	1296.8	3.29	2.881	2.561
x2 = 0.4099	783.479	779.937	776.383	1333.3	1314.9	1296.8	3.472	3.041	2.688
x2 = 0.4981	787.31	783.781	780.228	1333.5	1315.3	1297.2	3.768	3.307	2.896
x2 = 0.6017	792.441	788.911	785.346	1334.2	1316.2	1298.4	4.223	3.681	3.218
x2 = 0.6927	797.621	794.075	790.488	1335.8	1317.9	1300.2	4.714	4.086	3.554
x2 = 0.7963	804.426	800.846	797.284	1338.5	1320.9	1303.4	5.384	4.663	4.008
x2 = 0.8445	808.003	804.438	800.882	1340.1	1322.6	1305.3	5.757	4.992	4.251
x2 = 0.895	812.077	808.561	805.017	1342.2	1324.9	1307.8	6.219	5.383	4.54
x2 = 0.9529	817.221	813.871	810.331	1344.9	1327.9	1310.9	6.86	5.883	4.944

CCCCCCCCO [octan-1-ol] + CC(C)CCCC(C)CCCC(C)CCCCC(C)CCCC(C)CCCC(C)C
x1 = 1
Conditions	mass density [kg/m3]	speed of sound [m/s]	viscosity [mPa·s]
293.15 K	821.813	1348	–
298.15 K	–	–	7.506
303.15 K	818.796	1330.8	6.344
308.15 K	815.286	1314.1	5.363
